Assay results taken from US8828929B2 (priority 2008, dated 2014).
Where no end group is shown, it is not given here.

Columns and labels:
[1] = system: peptide-specific CTLs (IFN-γ-positive cells among CD8-positive cells); parameters: species or system HLA-A2 transgenic mouse; conditions: mouse, in vivo; for ICS (% in CD8+ cells): iv
HLA-A*0201 [2] = target: T1, HLA-A*0201 (Homo sapiens, UniProt P04439, D140Y/D185E/D98H/E176V/E277Q/G131W/G231S/I119V/I121R/I166T/I218V/L300P/L318F/N151K/N90K/P208A/P217A/Q86G/Q94H/R138H/R169H/T345S); test: cell-based; format: binding
T1 construct: endogenous in cells; host or cells: T2 cells (human lymphoid, TAP-deficient)

HLA-A*0201 [3] = target: T2, HLA-A*0201 (Homo sapiens, UniProt P04439, /I218V/L300P/L318F/N151K/N90K/P208A/P217A/Q86G/Q94H/R138H/R169H/T345S); test: cell-based; format: binding
T2 construct: endogenous in cells; host or cells: T2 cells (human lymphoid, TAP-deficient)

[4] = system: peptide-specific CTLs (IFN-γ-positive cells among CD8-positive cells); parameters: species or system HLA-A2 transgenic mouse; conditions: mouse, in vivo
[5] = system: target cells pulsed with the peptide; parameters: species or system HLA-A2 transgenic mouse; conditions: mouse, in vivo

Row | Molecule | ICS (% in CD8+ cells) [1] | EC50 (HLA-A*0201 [2]) | Affinity (HLA-A*0201 [3]) | CTL induction activity [4] | induction of IFN-γ-positive cells among CD8-positive cells [1] | CTL response activity [5] | peptide-specific lysis rates (%) of the target cells by CTLs [5] | ratio (%) of IFN-γ-positive cells among CD8-positive cells [4]
1 | VLGSLAATV [pp1a-4219] | 0.01% | 53.3 µM | High (key: High: less than 100 μM; Medium: 100 to 200 μM; Low: more than 200 μM) | – | – | – | – | –
2 | LLFITGNTL [pp1a-3745] | 0.03% | 154 µM | Medium (key: High: less than 100 μM; Medium: 100 to 200 μM; Low: more than 200 μM) | – | – | – | – | –
3 | QLSLPVLQV [pp1a-15] | 0.05% | 75.7 µM | High (key: High: less than 100 μM; Medium: 100 to 200 μM; Low: more than 200 μM) | – | – | – | – | –
4 | CC(C)C[C@H](NC(=O)[C@H](C)NC(=O)[C@H](C)NC(=O)[C@H](CC(C)C)NC(=O)[C@@H](NC(=O)[C@H](CS)NC(=O)[C@H](CC(C)C)NC(=O)[C@H](CC(C)C)NC(=O)[C@@H](N)[C@@H](C)O)C(C)C)C(=O)O [pp1a-2754, TLLCVLAAL] | 0.04% | – | High (key: High: less than 100 μM; Medium: 100 to 200 μM; Low: more than 200 μM) | – | – | – | – | –
5 | CC[C@H](C)[C@H](NC(=O)[C@H](CO)NC(=O)[C@H](CC(C)C)NC(=O)[C@H](CC(C)C)NC(=O)[C@H](CC(C)C)NC(=O)[C@H](CC(C)C)NC(=O)[C@H](Cc1c[nH]c2ccccc12)NC(=O)[C@H](CCSC)NC(=O)[C@H](C)N)C(=O)O [pp1a-2207] | *0.48% | – | – | higher than that of the CTL epitope peptide of the Spike protein | significantly induced IFN-γ-positive cells among CD8-positive cells | – | – | –
6 | SLQVCVQTV [pp1a-1139] | 0.07% | 4.9 µM | High (key: High: less than 100 μM; Medium: 100 to 200 μM; Low: more than 200 μM) | – | – | – | – | –
7 | KLSAGVEFL [pp1a-634] | 0.08% | 59.8 µM | High (key: High: less than 100 μM; Medium: 100 to 200 μM; Low: more than 200 μM) | – | – | – | – | –
8 | KLNIKLLGI [pp1a-3816] | 0.07% | 68.1 µM | High (key: High: less than 100 μM; Medium: 100 to 200 μM; Low: more than 200 μM) | – | – | – | – | –
9 | CC(C)C[C@H](NC(=O)[C@H](Cc1c[nH]c2ccccc12)NC(=O)[C@H](C)NC(=O)[C@H](CC(C)C)NC(=O)[C@@H](N)C(C)C)C(=O)N[C@@H](Cc1ccc(O)cc1)C(=O)N[C@@H](C)C(=O)N[C@@H](C)C(=O)N[C@H](C(=O)O)C(C)C [pp1a-3444] | *0.12% | – | High (key: High: less than 100 μM; Medium: 100 to 200 μM; Low: more than 200 μM) | – | significantly induced IFN-γ-positive cells among CD8-positive cells | – | – | –
10 | ALSGVFCGV [pp1a-2990] | *0.16% | 6.2 µM | High (key: High: less than 100 μM; Medium: 100 to 200 μM; Low: more than 200 μM) | higher than that of the CTL epitope peptide of the Spike protein | significantly induced IFN-γ-positive cells among CD8-positive cells | high CTL response activities | 73.4% | –
11 | CC[C@H](C)[C@H](NC(=O)[C@@H](NC(=O)[C@H](CC(C)C)NC(=O)[C@H](C)NC(=O)[C@H](Cc1c[nH]c2ccccc12)NC(=O)[C@H](CCSC)NC(=O)[C@@H](N)CO)C(C)C)C(=O)N[C@@H](CO)C(=O)N[C@H](C(=O)O)C(C)C [pp1a-3709] | *0.50% | – | High (key: High: less than 100 μM; Medium: 100 to 200 μM; Low: more than 200 μM) | higher than that of the CTL epitope peptide of the Spike protein | significantly induced IFN-γ-positive cells among CD8-positive cells | especially high CTL response activity | 96.3% | –
12 | TLGVLVPHV [pp1a-103] | 0.07% | 3.1 µM | High (key: High: less than 100 μM; Medium: 100 to 200 μM; Low: more than 200 μM) | – | – | – | – | –
13 | CC[C@H](C)[C@H](NC(=O)[C@H](CC(=O)O)NC(=O)[C@H](Cc1ccccc1)NC(=O)[C@@H](NC(=O)CNC(=O)[C@@H](NC(=O)[C@@H](NC(=O)[C@H](CC(C)C)NC(=O)[C@@H](N)Cc1ccccc1)[C@@H](C)CC)[C@@H](C)O)C(C)C)C(=O)O [pp1a-651] | 0.02% | – | High (key: High: less than 100 μM; Medium: 100 to 200 μM; Low: more than 200 μM) | – | – | – | – | –
14 | CC[C@H](C)[C@H](NC(=O)[C@H](CCC(=O)O)NC(=O)[C@H](CC(C)C)NC(=O)[C@H](CC(C)C)NC(=O)[C@H](CC(=O)O)NC(=O)[C@H](CCC(=O)O)NC(=O)[C@H](CC(N)=O)NC(=O)[C@H](CC(C)C)NC(=O)[C@@H](N)[C@@H](C)O)C(=O)O [pp1a-445] | 0.08% | – | High (key: High: less than 100 μM; Medium: 100 to 200 μM; Low: more than 200 μM) | – | – | – | – | –
15 | FIAGLIAIV [spike-1203, reference compound] | – | – | – | – | – | – | – | 0.29%
16 | CC[C@H](C)[C@H](NC(=O)[C@H](CC(C)C)NC(=O)[C@H](CC(C)C)NC(=O)[C@H](CO)NC(=O)[C@@H](NC(=O)[C@H](CC(C)C)NC(=O)[C@@H](N)Cc1ccccc1)[C@@H](C)O)C(=O)N[C@@H](CC(C)C)C(=O)N[C@H](C(=O)O)C(C)C [pp1a-3564] | 0.06% | – | Medium (key: High: less than 100 μM; Medium: 100 to 200 μM; Low: more than 200 μM) | – | – | – | – | –
17 | MLLTFLTSL [pp1a-3560] | 0.04% | 47.1 µM | High (key: High: less than 100 μM; Medium: 100 to 200 μM; Low: more than 200 μM) | – | – | – | – | –
18 | LLCVLAALV [pp1a-2755] | *0.18% | 187 µM | – | higher than that of the CTL epitope peptide of the Spike protein | significantly induced IFN-γ-positive cells among CD8-positive cells | high CTL response activities | 70.5% | –
19 | MLSRALKKV [pp1a-1288] | 0.05% | 65.1 µM | High (key: High: less than 100 μM; Medium: 100 to 200 μM; Low: more than 200 μM) | – | – | – | – | –
20 | ILLLDQVLV [pp1a-2546] | *0.17% | 7.6 µM | High (key: High: less than 100 μM; Medium: 100 to 200 μM; Low: more than 200 μM) | higher than that of the CTL epitope peptide of the Spike protein | significantly induced IFN-γ-positive cells among CD8-positive cells | – | – | –
21 | CC[C@H](C)[C@H](NC(=O)[C@@H](NC(=O)[C@H](CC(N)=O)NC(=O)[C@H](CCSC)NC(=O)[C@H](CC(C)C)NC(=O)[C@@H](N)[C@@H](C)O)C(C)C)C(=O)N[C@H](C(=O)N[C@@H](CC(C)C)C(=O)N[C@H](C(=O)O)C(C)C)[C@@H](C)O [pp1a-3687] | *0.20% | – | High (key: High: less than 100 μM; Medium: 100 to 200 μM; Low: more than 200 μM) | higher than that of the CTL epitope peptide of the Spike protein | significantly induced IFN-γ-positive cells among CD8-positive cells | – | – | –
22 | CC(C)C[C@H](NC(=O)[C@H](CO)NC(=O)[C@@H]1CCCN1C(=O)[C@H](CC(C)C)NC(=O)[C@H](CC(C)C)NC(=O)[C@@H](N)Cc1ccccc1)C(=O)N[C@@H](C)C(=O)N[C@H](C(=O)N[C@H](C(=O)O)C(C)C)[C@@H](C)O [pp1a-3616] | 0.07% | – | High (key: High: less than 100 μM; Medium: 100 to 200 μM; Low: more than 200 μM) | – | – | – | – | –
23 | CLDAGINYV [pp1a-2187] | *0.19% | 3 µM | High (key: High: less than 100 μM; Medium: 100 to 200 μM; Low: more than 200 μM) | higher than that of the CTL epitope peptide of the Spike protein | significantly induced IFN-γ-positive cells among CD8-positive cells | high CTL response activities | 79.2% | –
24 | CC(C)C[C@H](NC(=O)[C@@H](NC(=O)[C@@H](NC(=O)[C@@H](NC(=O)[C@H](Cc1ccccc1)NC(=O)[C@H](CCCNC(=N)N)NC(=O)[C@H](CC(N)=O)NC(=O)[C@H](CC(C)C)NC(=O)[C@@H](N)Cc1ccccc1)[C@@H](C)O)[C@@H](C)O)[C@@H](C)O)C(=O)O [pp1a-3459] | 0.03% | – | High (key: High: less than 100 μM; Medium: 100 to 200 μM; Low: more than 200 μM) | – | – | – | – | –
25 | YLSSVLLAL [pp1a-1652, YLSSVLLAL] | 0.05% | 6.7 µM | High (key: High: less than 100 μM; Medium: 100 to 200 μM; Low: more than 200 μM) | – | – | – | – | –
26 | VLLSVLQQL [pp1a-3848] | 0.07% | 102 µM | Medium (key: High: less than 100 μM; Medium: 100 to 200 μM; Low: more than 200 μM) | – | – | – | – | –
